Measurements taken from ChEMBL document CHEMBL1139902, “Synthesis and SAR of succinamide peptidomimetic inhibitors of cathepsin S” (Bioorg Med Chem Lett, 2007).

Assays:
Cathepsin K = molecular target: T1, Cathepsin K (Homo sapiens, UniProt P43235); assay: Inhibition of cathepsin K
T1 sequence (P43235 whole entry): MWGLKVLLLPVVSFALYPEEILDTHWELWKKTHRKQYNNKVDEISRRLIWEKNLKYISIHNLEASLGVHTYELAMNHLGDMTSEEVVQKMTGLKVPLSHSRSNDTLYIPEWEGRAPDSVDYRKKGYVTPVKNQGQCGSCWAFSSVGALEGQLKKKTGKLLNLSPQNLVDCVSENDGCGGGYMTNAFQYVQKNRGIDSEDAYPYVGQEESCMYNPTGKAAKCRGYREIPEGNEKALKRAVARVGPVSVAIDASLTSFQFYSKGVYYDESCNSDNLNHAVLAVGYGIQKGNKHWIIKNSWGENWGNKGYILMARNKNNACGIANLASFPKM

Procathepsin L = Procathepsin L (Homo sapiens, UniProt P07711); assay: Inhibition of cathepsin L
Procathepsin L, sequence (P07711 whole entry): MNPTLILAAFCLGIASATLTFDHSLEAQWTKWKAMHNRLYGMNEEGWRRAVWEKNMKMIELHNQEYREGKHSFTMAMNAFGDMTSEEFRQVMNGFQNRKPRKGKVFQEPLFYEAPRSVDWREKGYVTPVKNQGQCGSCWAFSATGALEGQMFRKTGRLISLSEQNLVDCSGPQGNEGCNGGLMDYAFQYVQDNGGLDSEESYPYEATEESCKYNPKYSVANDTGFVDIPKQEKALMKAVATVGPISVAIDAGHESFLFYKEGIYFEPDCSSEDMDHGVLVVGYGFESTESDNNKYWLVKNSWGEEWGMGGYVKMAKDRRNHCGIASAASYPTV

Cathepsin S = Cathepsin S (Homo sapiens, UniProt P25774)
Cathepsin S, sequence (P25774 whole entry): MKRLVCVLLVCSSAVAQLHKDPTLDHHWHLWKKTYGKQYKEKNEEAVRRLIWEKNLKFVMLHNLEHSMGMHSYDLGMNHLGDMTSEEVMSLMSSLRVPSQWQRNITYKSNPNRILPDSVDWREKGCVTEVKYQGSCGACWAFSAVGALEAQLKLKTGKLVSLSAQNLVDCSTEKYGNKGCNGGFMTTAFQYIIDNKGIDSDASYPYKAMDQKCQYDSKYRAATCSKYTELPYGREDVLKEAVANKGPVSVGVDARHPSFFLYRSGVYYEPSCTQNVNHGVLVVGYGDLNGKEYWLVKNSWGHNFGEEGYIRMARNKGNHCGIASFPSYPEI
Description: Inhibition of cathepsin S

[1] = AUC in Wistar rat at 10 mg/kg, po; type: ADME, organism-based; design: dose 10 mg/kg, route oral; details: plasma
[2] = Cmax in Wistar rat at 10 mg/kg. po; type: ADME, organism-based; design: dose 10 mg/kg, route oral; details: in vivo
[3] = Tmax in Wistar rat at 10 mg/kg. po; type: ADME, organism-based; design: dose 10 mg/kg, route oral; details: in vivo
[4] = Half life in Wistar rat at 10 mg/kg. po; type: ADME, organism-based; design: dose 10 mg/kg, route oral; details: in vivo

| Compound | Ki (Cathepsin K) | Ki (Procathepsin L) | Ki (Cathepsin S) | AUC [1] | Cmax [2] | Tmax [3] | half-life [4] |
| --- | --- | --- | --- | --- | --- | --- | --- |
| O=C(NCCNc1ccc(F)cc1)[C@@H](CC(=O)N1CCOCC1)CC1CCCCC1 | > 30 µM | > 30 µM | 1.37 µM |  |  |  |  |
| CC(C)[C@@H](CNc1ccc(OC(F)(F)F)cc1)NC(=O)[C@@H](CC(=O)N1CCOCC1)c1ccc(Cl)cc1 | > 100 µM | > 100 µM |  | 2.82 µM·h | 720 nM | 2 h | 1.82 h |
| O=C(NCCNc1ccc(OC(F)(F)F)cc1)[C@@H](CC(=O)N1CCOCC1)CC1CCCCC1 | > 100 µM | > 30 µM | 0.194 µM |  |  |  |  |
| C[C@@H](CNc1ccc(OC(F)(F)F)cc1)NC(=O)[C@@H](CC(=O)N1CCOCC1)CC1CCCC1 | 3.71 µM | > 30 µM |  | 0.806 µM·h | 318 nM | 1 h | 0.68 h |
| O=C(NCCN1CCc2cc(F)ccc21)[C@H](CC1CCCCC1)NC(=O)N1CCOCC1 |  |  |  | 0.312 µM·h | 140 nM | 0.33 h | 1.12 h |
| CC(C)[C@@H](CNc1ccc(OC(F)(F)F)cc1)NC(=O)[C@@H](CC(=O)N1CCOCC1)CC1CCCCC1 | 0.995 µM |  | 0.011 µM | 0.831 µM·h | 241 nM | 1.7 h | 1.06 h |
| CCC[C@@H](CNc1ccc(OC(F)(F)F)cc1)NC(=O)[C@@H](CC(=O)N1CCOCC1)CC1CCCCC1 | 0.557 µM | 0.285 µM | 0.013 µM | 0.752 µM·h | 220 nM | 1.83 h | 1.23 h |
| CC(C)[C@@H](CNc1ccc(OC(F)(F)F)cc1)NC(=O)[C@@H](CC(=O)N1CCOCC1)c1cccc(C(F)(F)F)c1 | > 100 µM | > 30 µM | 18.5 µM |  |  |  |  |
| CCC[C@@H](CNc1ccc(OC(F)(F)F)cc1)NC(=O)[C@@H](CC(=O)N1CCOCC1)CC1CCCC1 | 0.217 µM | 2.68 µM | 0.012 µM |  |  |  |  |
| CC(C)[C@@H](CNc1ccc(OC(F)(F)F)cc1)NC(=O)[C@@H](CC(=O)N1CCOCC1)c1ccc(C(F)(F)F)cc1 | > 100 µM | > 100 µM | 0.043 µM | 4.63 µM·h | 946 nM | 2 h | 2.26 h |
| CC(C)[C@@H](CNc1ccc(OC(F)(F)F)cc1)NC(=O)[C@@H](CC(=O)N1CCOCC1)CC1CCCC1 | 1.14 µM |  | 0.038 µM |  |  |  |  |
| O=C(NCCNc1ccc(OC(F)(F)F)cc1)[C@@H](CC(=O)N1CCOCC1)c1ccc(C(F)(F)F)cc1 | > 100 µM |  |  |  |  |  |  |
| C[C@@H](CN1CCc2cc(F)ccc21)NC(=O)[C@@H](CC(=O)N1CCOCC1)CC1CCCCC1 |  |  |  | 0.048 µM·h | 24 nM | 0.42 h | 1.12 h |
| O=C(NCCNc1ccc(F)cc1)[C@H](CC(=O)N1CCOCC1)CC1CCCCC1 | > 100 µM | > 100 µM | > 100 µM |  |  |  |  |
| CC(C)[C@@H](CNc1ccc(OC(F)(F)F)cc1)NC(=O)[C@@H](CC(=O)N1CCOCC1)c1ccc(F)cc1 | 11.5 µM | 11.5 µM | 0.024 µM | 1.87 µM·h | 629 nM | 1.67 h | 0.97 h |
| O=C(N[C@@H](CCc1ccccc1)CNc1ccc(OC(F)(F)F)cc1)[C@@H](CC(=O)N1CCOCC1)c1ccccc1 | 0.71 µM |  | 0.037 µM |  |  |  |  |
| COc1ccc([C@H](CC(=O)N2CCOCC2)C(=O)N[C@H](CNc2ccc(OC(F)(F)F)cc2)C(C)C)cc1 | > 30 µM | > 65 µM |  | 2.04 µM·h | 789 nM | 1 h | 1.06 h |
| O=C(N[C@H](CNc1ccc(OC(F)(F)F)cc1)C1CC1)[C@@H](CC(=O)N1CCOCC1)c1ccc(C(F)(F)F)cc1 | > 100 µM | > 100 µM | 0.616 µM |  |  |  |  |
| C[C@@H](CNc1ccc(OC(F)(F)F)cc1)NC(=O)[C@@H](CC(=O)N1CCOCC1)c1ccc(C(F)(F)F)cc1 | > 100 µM | > 100 µM |  |  |  |  |  |
| CC(C)[C@@H](CNc1ccc(OC(F)(F)F)cc1)NC(=O)[C@@H](CC(=O)N1CCOCC1)c1ccccc1 | 11.5 µM | 11.5 µM | 0.025 µM | 1.91 µM·h | 647 nM | 0.7 h | 0.92 h |

| Compound | Ki (Cathepsin K) | Ki (Procathepsin L) | Ki (Cathepsin S) | AUC [1] | Cmax [2] | Tmax [3] | half-life [4] |
| --- | --- | --- | --- | --- | --- | --- | --- |
| C[C@@H](CNc1ccc(OC(F)(F)F)cc1)NC(=O)[C@@H](CC(=O)N1CCOCC1)CC(C)(C)C | 2.33 µM | > 100 µM |  |  |  |  |  |
| O=C(N[C@@H](CCc1ccccc1)CNc1ccc(OC(F)(F)F)cc1)[C@@H](CC(=O)N1CCOCC1)CC1CCCCC1 | 1.48 µM | 0.636 µM | 0.018 µM |  |  |  |  |
| O=C(C[C@@H](CC1CCCCC1)C(=O)N1CCOCC1)NCCNc1ccc(F)cc1 | > 100 µM | > 100 µM | 1.72 µM |  |  |  |  |
| CC[C@@H](CNc1ccc(OC(F)(F)F)cc1)NC(=O)[C@@H](CC(=O)N1CCOCC1)CC1CCCCC1 | 0.907 µM | 0.267 µM |  |  |  |  |  |
| O=C(C[C@H](CC1CCCCC1)C(=O)N1CCOCC1)NCCNc1ccc(F)cc1 | > 100 µM | > 100 µM | > 100 µM |  |  |  |  |
| CC(C)[C@@H](CNc1ccc(OC(F)(F)F)cc1)NC(=O)[C@@H](CC(=O)N1CCOCC1)c1ccccc1C(F)(F)F | > 100 µM | > 100 µM | > 100 µM |  |  |  |  |
| O=C(N[C@@H](CCc1ccccc1)CNc1ccc(OC(F)(F)F)cc1)[C@H](CCC1CCCC1)CC(=O)N1CCOCC1 | > 30 µM | 2.31 µM | 0.2 µM |  |  |  |  |
| O=C(N[C@H](CNc1ccc(OC(F)(F)F)cc1)c1ccccc1)[C@@H](CC(=O)N1CCOCC1)c1ccccc1 | 10.5 µM |  | 0.261 µM |  |  |  |  |
| C[C@@H](CN1CCc2cc(F)ccc21)NC(=O)[C@@H](CC(=O)N1CCOCC1)Cc1ccccc1 | > 30 µM | 8.86 µM | > 24 µM |  |  |  |  |
| CC(C)[C@@H](CNc1ccc(OC(F)(F)F)cc1)NC(=O)[C@H](CCc1ccccc1)CC(=O)N1CCOCC1 | 0.184 µM | 0.372 µM | 0.027 µM |  |  |  |  |
| O=C(N[C@H](CNc1ccc(OC(F)(F)F)cc1)c1ccccc1)[C@@H](CC(=O)N1CCOCC1)CC1CCCCC1 | > 30 µM | 3.52 µM | 0.062 µM | 2.77 µM·h | 815 nM | 2 h | 1.22 h |
| CS(=O)(=O)CC[C@H](CNc1ccc(OC(F)(F)F)cc1)NC(=O)[C@@H](CC(=O)N1CCOCC1)CC1CCCCC1 | 5.41 µM |  | 0.069 µM |  |  |  |  |
| CC[C@@H](CNc1ccc(OC(F)(F)F)cc1)NC(=O)[C@H](CCc1ccccc1)CC(=O)N1CCOCC1 | 0.291 µM | 0.588 µM | 0.06 µM |  |  |  |  |
| CC(C)[C@@H](CNc1ccc(OC(F)(F)F)cc1)NC(=O)[C@H](CCC1CCCC1)CC(=O)N1CCOCC1 | > 26.4 µM |  | 0.011 µM |  |  |  |  |
| C[C@@H](CNc1ccc(OC(F)(F)F)cc1)NC(=O)[C@@H](CC(=O)N1CCOCC1)CC1CCCCC1 | 24.3 µM | 18.9 µM | 0.028 µM | 2.78 µM·h | 983 nM | 1.5 h | 0.87 h |
| C[C@@H](CNc1ccc(OC(F)(F)F)cc1)NC(=O)[C@H](CCC(C)(C)C)CC(=O)N1CCOCC1 | > 100 µM | > 100 µM |  |  |  |  |  |
| CS(=O)(=O)CC[C@@H](CNc1ccc(OC(F)(F)F)cc1)NC(=O)[C@@H](CC(=O)N1CCOCC1)CC1CCCCC1 | 0.26 µM |  | 0.005 µM |  |  |  |  |
| CC(C)[C@@H](CNc1ccc(OC(F)(F)F)cc1)NC(=O)[C@H](CCCc1ccccc1)CC(=O)N1CCOCC1 | 2.12 µM |  | 0.014 µM |  |  |  |  |
| C[C@@H](CNc1ccc(OC(F)(F)F)cc1)NC(=O)[C@H](CCC1CCCCC1)CC(=O)N1CCOCC1 | 3.71 µM | > 30 µM | 0.095 µM |  |  |  |  |
| Cc1ccc([C@H](CC(=O)N2CCOCC2)C(=O)N[C@H](CNc2ccc(OC(F)(F)F)cc2)C(C)C)cc1 | > 30 µM | > 100 µM | 0.134 µM |  |  |  |  |
